# Assay results: US9695155B2, “Herbicidal substituted pyrimidinyloxy benzene compounds” (E. I. DU PONT DE NEMOURS AND COMPANY, priority 2013, dated 2017)
# Experiments:
# ragweed [1] = test: Test A postemergence; assay type: in vivo, Ambrosia elatior; conditions: for Plant response rating, Ragweed: 0 to 100 scale, 0 no effect, 100 complete control
# Method in brief: (§1)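 Injury scores run from 0, no effect, to 100, complete control, judged by eye against untreated plants roughly 10 days after treatment. Chemicals carried a surfactant in a non-phytotoxic solvent and went onto loam–sand soil preemergence or onto one- to two-leaf seedlings postemergence.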
# kochia [2] = test: Test A preemergence; assay type: in vivo, Kochia scoparia; conditions: for Plant response rating, Kochia: 0 to 100 scale where 0 is no effect and 100 is complete control
# Method in brief: as §1
# barnyardgrass [3] = test: Test A postemergence; assay type: in vivo, Echinochloa crus-galli
# Method in brief: as §1
# Italian ryegrass [4] = test: Test A postemergence; assay type: in vivo, Lolium multiflorum; conditions: for Plant response rating, Ryegrass, Italian: 0 to 100 scale, 0 no effect, 100 complete control
# Method in brief: as §1
# Heteranthera limosa = test: Test B flooded paddy test; assay type: in vivo; conditions: Flood, 250 g ai/ha; 0 to 100 scale where 0 is no effect and 100 is complete control
# Method in brief: (§2)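 Plants at 2-leaf stage; pots flooded to 3 cm above soil and compound applied directly into paddy water, depth held throughout. After 13 to 15 days in greenhouse, visual rating versus controls on 0 (no effect) to 100 (complete control) scale.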
# barnyardgrass [5] = test: Test A preemergence; assay type: in vivo, Echinochloa crus-galli; conditions: for Plant response rating, Barnyardgrass: 0 to 100 scale where 0 is no effect and 100 is complete control
# Method in brief: as §1
# sedge, umbrella = test: Test B flooded paddy test; assay type: in vivo, Cyperus difformis; conditions: Flood, 250 g ai/ha; 0 to 100 scale where 0 is no effect and 100 is complete control
# Method in brief: as §2
# corn = test: Test A postemergence; assay type: in vivo, Zea mays
# Method in brief: as §1
# giant foxtail [6] = test: Test A postemergence; assay type: in vivo, Setaria faberii
# Method in brief: as §1
# giant foxtail [7] = test: Test A preemergence; assay type: in vivo, Setaria faberii; conditions: for Plant response rating, Foxtail, Giant: 0 to 100 scale where 0 is no effect and 100 is complete control
# Method in brief: as §1
# ragweed [8] = test: Test A preemergence; assay type: in vivo, Ambrosia elatior; conditions: for Plant response rating, Ragweed: 0 to 100 scale where 0 is no effect and 100 is complete control
# Method in brief: as §1
# Italian ryegrass [9] = test: Test A preemergence; assay type: in vivo, Lolium multiflorum; conditions: for Plant response rating, Ryegrass, Italian: 0 to 100 scale where 0 is no effect and 100 is complete control
# Method in brief: as §1
# rice = test: Test B flooded paddy test; assay type: in vivo, Oryza sativa; conditions: Flood, 250 g ai/ha; 0 to 100 scale where 0 is no effect and 100 is complete control
# Method in brief: as §2
# pigweed [10] = test: Test A postemergence; assay type: in vivo, Amaranthus retroflexus; conditions: for Plant response rating, Pigweed: 0 to 100 scale, 0 no effect, 100 complete control
# Method in brief: as §1
# galium = test: Test A postemergence; assay type: in vivo, Galium aparine
# Method in brief: as §1
# kochia [11] = test: Test A postemergence; assay type: in vivo, Kochia scoparia
# Method in brief: as §1
# pigweed [12] = test: Test A preemergence; assay type: in vivo, Amaranthus retroflexus; conditions: for Plant response rating, Pigweed: 0 to 100 scale where 0 is no effect and 100 is complete control
# Method in brief: as §1
# wheat = test: Test A postemergence; assay type: in vivo, Triticum aestivum; conditions: for Plant response rating, Wheat: 0 to 100 scale, 0 no effect, 100 complete control
# Method in brief: as §1
# blackgrass = test: Test A postemergence; assay type: in vivo, Alopecurus myosuroides
# Method in brief: as §1
# barnyardgrass [13] = test: Test B flooded paddy test; assay type: in vivo, Echinochloa crus-galli; conditions: Flood, 250 g ai/ha; 0 to 100 scale where 0 is no effect and 100 is complete control
# Method in brief: as §2
# [14] = 125 g ai/ha, 0 to 100 scale where 0 is no effect and 100 is complete control
# [15] = 31 g ai/ha, 0 to 100 scale, 0 no effect, 100 complete control
# [16] = 31 g ai/ha, visual, approximately 10 days
# [17] = 125 g ai/ha, 0 to 100 scale, 0 no effect, 100 complete control
structure (smiles),measurement,setting,value
COc1cnn(-c2c(F)cccc2Oc2ncc(Cl)cn2)c1 [Compound 121],"Plant response rating, Ragweed",ragweed [1]; 31 g ai/ha,10
same,Ragweed plant response rating,ragweed [1]; [14],40
same,Kochia plant response rating (0 to 100 scale),kochia [2]; 31 g ai/ha,0
same,"Plant response rating, Kochia",kochia [2]; 125 g ai/ha,60
same,"Plant response rating, Barnyardgrass",barnyardgrass [3]; [15],0
same,Barnyardgrass plant response rating,barnyardgrass [3]; [14],20
same,"Plant response rating, Ryegrass, Italian",Italian ryegrass [4]; 31 g ai/ha,0
same,"Ryegrass, Italian plant response rating",Italian ryegrass [4]; [14],0
same,"Plant response rating, Ducksalad",Heteranthera limosa,45
same,Barnyardgrass plant response rating (0 to 100 scale),barnyardgrass [5]; 31 g ai/ha,0
same,"Plant response rating, Barnyardgrass",barnyardgrass [5]; 125 g ai/ha,30
same,"Plant response rating, Sedge, Umbrella","sedge, umbrella",0
same,"Plant response rating, Corn",corn; [15],0
same,Corn plant response rating,corn; [14],10
same,"Plant response rating, Foxtail, Giant",giant foxtail [6]; [15],0
same,"Foxtail, Giant plant response rating",giant foxtail [6]; [14],30
same,"Foxtail, Giant plant response rating (0 to 100 scale)",giant foxtail [7]; 31 g ai/ha,10
same,"Plant response rating, Foxtail, Giant",giant foxtail [7]; 125 g ai/ha,50
same,Ragweed plant response rating (0 to 100 scale),ragweed [8]; 31 g ai/ha,0
same,"Plant response rating, Ragweed",ragweed [8]; 125 g ai/ha,10
same,"Ryegrass, Italian plant response rating (0 to 100 scale)",Italian ryegrass [9]; 31 g ai/ha,0
same,"Plant response rating, Ryegrass, Italian",Italian ryegrass [9]; 125 g ai/ha,0
same,"Plant response rating, Rice",rice,0
same,"Plant response rating, Pigweed",pigweed [10]; 31 g ai/ha,10
same,Pigweed plant response rating,pigweed [10]; [14],40
same,"Plant response rating, Galium",galium; [15],10
same,Galium plant response rating,galium; [14],30
same,"Plant response rating, Kochia",kochia [11]; [15],20
same,Kochia plant response rating,kochia [11]; [14],40
same,Pigweed plant response rating (0 to 100 scale),pigweed [12]; 31 g ai/ha,60
same,"Plant response rating, Pigweed",pigweed [12]; 125 g ai/ha,90
same,"Plant response rating, Wheat",wheat; 31 g ai/ha,0
same,Wheat plant response rating,wheat; [14],0
same,"Plant response rating, Blackgrass",blackgrass; [15],10
same,Blackgrass plant response rating,blackgrass; [14],30
same,"Plant response rating, Barnyardgrass",barnyardgrass [13],20
Fc1cccc(Oc2ncc(Cl)cn2)c1-n1cc(-c2ccsc2)nn1 [Compound 277],"Plant response rating, Ragweed",ragweed [1]; 31 g ai/ha,50
same,"Plant response rating, Ragweed",ragweed [1]; 125 g ai/ha,60
same,"Plant response rating, Kochia",kochia [2]; [16],0
same,Kochia plant response rating (0 to 100 scale),kochia [2]; 125 g ai/ha,0
same,"Plant response rating, Barnyardgrass",barnyardgrass [3]; [15],20
same,"Plant response rating, Barnyardgrass",barnyardgrass [3]; [17],40
same,"Plant response rating, Ryegrass, Italian",Italian ryegrass [4]; 31 g ai/ha,30
same,"Plant response rating, Ryegrass, Italian",Italian ryegrass [4]; 125 g ai/ha,50
same,"Plant response rating, Ducksalad",Heteranthera limosa,80
same,"Plant response rating, Barnyardgrass",barnyardgrass [5]; [16],0
same,"Barnyardgrass plant response rating (0 to 100 scale, 0 is no effect, 100 is complete control)",barnyardgrass [5]; 125 g ai/ha,0
same,"Plant response rating, Sedge, Umbrella","sedge, umbrella",80
same,"Plant response rating, Corn",corn; [15],0
same,"Plant response rating, Corn",corn; [17],20
same,"Plant response rating, Foxtail, Giant",giant foxtail [6]; [15],40
same,"Plant response rating, Foxtail, Giant",giant foxtail [6]; [17],70
same,"Plant response rating, Foxtail, Giant",giant foxtail [7]; [16],30
same,"Foxtail, Giant plant response rating (0 to 100 scale)",giant foxtail [7]; 125 g ai/ha,70
same,"Plant response rating, Ragweed",ragweed [8]; [16],0
same,Ragweed plant response rating (0 to 100 scale),ragweed [8]; 125 g ai/ha,0
same,"Plant response rating, Ryegrass, Italian",Italian ryegrass [9]; [16],0
same,"Ryegrass, Italian plant response rating (0 to 100 scale)",Italian ryegrass [9]; 125 g ai/ha,0
same,"Plant response rating, Rice",rice,0
same,"Plant response rating, Pigweed",pigweed [10]; 31 g ai/ha,60
same,"Plant response rating, Pigweed",pigweed [10]; 125 g ai/ha,70
same,"Plant response rating, Galium",galium; [15],100
same,"Plant response rating, Galium",galium; [17],100
same,"Plant response rating, Kochia",kochia [11]; [15],60
same,"Plant response rating, Kochia",kochia [11]; [17],70
same,"Plant response rating, Pigweed",pigweed [12]; [16],30
same,Pigweed plant response rating (0 to 100 scale),pigweed [12]; 125 g ai/ha,60
same,"Plant response rating, Wheat",wheat; 31 g ai/ha,0
same,"Plant response rating, Wheat",wheat; 125 g ai/ha,0
same,"Plant response rating, Blackgrass",blackgrass; [15],30
same,"Plant response rating, Blackgrass",blackgrass; [17],50
same,"Plant response rating, Barnyardgrass",barnyardgrass [13],0
FCc1cccc(Oc2ncc(Cl)cn2)c1-n1cc(C(F)(F)F)cn1 [Compound 119],"Plant response rating, Ragweed",ragweed [1]; 31 g ai/ha,30
same,Kochia plant response rating (0 to 100 scale),kochia [2]; 31 g ai/ha,50
same,"Plant response rating, Kochia",kochia [2]; 125 g ai/ha,100
same,"Plant response rating, Barnyardgrass",barnyardgrass [3]; [15],40
same,"Plant response rating, Barnyardgrass",barnyardgrass [3]; [14],70
same,"Plant response rating, Ryegrass, Italian",Italian ryegrass [4]; 31 g ai/ha,30
same,"Plant response rating, Ducksalad",Heteranthera limosa,95
same,Barnyardgrass plant response rating (0 to 100 scale),barnyardgrass [5]; 31 g ai/ha,30
same,"Plant response rating, Barnyardgrass",barnyardgrass [5]; 125 g ai/ha,90
same,"Plant response rating, Sedge, Umbrella","sedge, umbrella",95
same,"Plant response rating, Corn",corn; [15],10
same,"Plant response rating, Corn",corn; [14],50
same,"Plant response rating, Foxtail, Giant",giant foxtail [6]; [15],30
same,"Plant response rating, Foxtail, Giant",giant foxtail [6]; [14],80
same,"Foxtail, Giant plant response rating (0 to 100 scale)",giant foxtail [7]; 31 g ai/ha,90
same,"Plant response rating, Foxtail, Giant",giant foxtail [7]; 125 g ai/ha,100
same,Ragweed plant response rating (0 to 100 scale),ragweed [8]; 31 g ai/ha,0
same,"Plant response rating, Ragweed",ragweed [8]; 125 g ai/ha,60
same,"Ryegrass, Italian plant response rating (0 to 100 scale)",Italian ryegrass [9]; 31 g ai/ha,10
same,"Plant response rating, Ryegrass, Italian",Italian ryegrass [9]; 125 g ai/ha,80
same,"Plant response rating, Rice",rice,25
same,"Plant response rating, Pigweed",pigweed [10]; 31 g ai/ha,70
same,"Plant response rating, Galium",galium; [15],70
same,"Plant response rating, Galium",galium; [14],100
same,"Plant response rating, Kochia",kochia [11]; [15],70
same,"Plant response rating, Kochia",kochia [11]; [14],90
same,Pigweed plant response rating (0 to 100 scale),pigweed [12]; 31 g ai/ha,100
same,"Plant response rating, Pigweed",pigweed [12]; 125 g ai/ha,100
same,"Plant response rating, Wheat",wheat; 31 g ai/ha,10
same,"Plant response rating, Blackgrass",blackgrass; [15],40
same,"Plant response rating, Blackgrass",blackgrass; [14],70
same,"Plant response rating, Barnyardgrass",barnyardgrass [13],40
